Article PMC8249783, “A novel multikinase inhibitor SKLB‐YTH‐60 ameliorates inflammation and fibrosis in bleomycin‐induced lung fibrosis mouse models” (Cell Proliferation, 2021)
Converted amounts (≈) assume the structure as drawn. Like-named read-outs stand apart in the source and are kept apart here.

What was measured:
[1] = target: FGFR2 (h) (Homo sapiens, UniProt P21802); assay: Kinase profile assay and IC50 test (Eurofins); format: biochemical; details: double testing
Protocol: (§1) The in vitro kinase enzymatic inhibition assays were carried out by the Kinase Profiling Services provided by Eurofins (UK). The detailed protocol descriptions can be provided by the website (https://www.eurofinsdiscoveryservices.com).

[2] = target: FGFR4 (h) (Homo sapiens, UniProt P22455); assay: Kinase profile assay and IC50 test (Eurofins); format: biochemical; details: double testing
Protocol: as §1

[3] = target: Flt1 (h)/VEGFR1 (Homo sapiens, UniProt P17948); assay: Kinase profile assay and IC50 test (Eurofins); format: biochemical; details: double testing
Protocol: as §1

[4] = target: PDGFRβ (h) (Homo sapiens, UniProt P09619); assay: Kinase profile assay and IC50 test (Eurofins); format: biochemical
Protocol: as §1

[5] = Determination of thermodynamic solubility; format: physicochemical; details: for solubility at 5 min: thermodynamic from solid, double testing
Protocol: Weigh about 1 mg of the test compound into 1.5 mL centrifuge tube and add 0.5 mL various solvents, sonicating for 5 minutes (if the compound is completely dissolved, then added again test compound until a little solid remains). Take the supernatant after centrifugation, diluting to a suitable concentration using and measuring absorbance values by UV spectrophotometer. Weigh 10 mg compound accurately of the test compound into 1.5 mL centrifuge tube and add 1.2 mL methanol solution to prepare 8.3 mg·mL^−1 mother solution. Take the above described mother liquor to prepare the solution in concentrations of 8.3, 4.2, 2.1, 1.0, 0.52, 0.26 mg·mL^−1 then measure absorbance value. With concentration c (mg·mL^−1) as the abscissa, absorbance A as the ordinate, mapping and fitting line to get the standard curve (The correlation coefficient should be greater than 0.998). Calculate solubility according to the standard curve of the linear equation.

[6] = tested on: LO2 cells; assay: Cytotoxicity in normal human liver cell line; format: cell-based; details: 24 hours exposure
Protocol: (§2) The cell viability of YTH‐60 and Nintedanib treatment was performed by MTT and CCK8 assay. Briefly, the exponentially growing cells were seeded in 96‐well (2‐5 × 10^3 cells·well^−1) and cultured for 24 hours. The cells were treated with different concentrations of YTH‐60 (0, 0.625, 1.25, 2.5, 5, 10 µmol·L^−1), after treatment for 24, 48 and 72 hours, respectively, a volume of 20 μL of 5 mg·mL^−1 MTT solution or 10 μL CCK‐8 solution was added to each well and incubation for 2‐4 hours at 37°C. Finally, the 96‐well plates were read on Multiskan FC microplate spectrophotometer at 570 or 450 nm wavelength.

[7] = tested on: A549 cells; assay: Cell viability assay (MTT); format: cell-based, human
Protocol: as §2

[8] = tested on: phosphorylation of Smad2/3; assay: Western blot of TGF‐β1‐induced Smad signalling in fibroblasts; format: cell-based; details: TGF‐β1, 24 hours
Protocol: Samples of cells and mouse lung tissues were lysed in RIPA buffer with a protease and phosphatase inhibitors (Selleckchem). The protein concentrations in the cell lysate were measured by the Lowry method. Approximately 50 μg of total protein was separated by SDS‐PAGE and then transferred to polyvinylidene fluoride (PVDF) membranes (Amersham Bioscience). After the membranes incubation with the specific primary and secondary antibodies, the reactive bands were detected with enhanced chemiluminescent substrate to horseradish peroxidase.

Sequence of PDGFRβ (h) (P09619 33-1106): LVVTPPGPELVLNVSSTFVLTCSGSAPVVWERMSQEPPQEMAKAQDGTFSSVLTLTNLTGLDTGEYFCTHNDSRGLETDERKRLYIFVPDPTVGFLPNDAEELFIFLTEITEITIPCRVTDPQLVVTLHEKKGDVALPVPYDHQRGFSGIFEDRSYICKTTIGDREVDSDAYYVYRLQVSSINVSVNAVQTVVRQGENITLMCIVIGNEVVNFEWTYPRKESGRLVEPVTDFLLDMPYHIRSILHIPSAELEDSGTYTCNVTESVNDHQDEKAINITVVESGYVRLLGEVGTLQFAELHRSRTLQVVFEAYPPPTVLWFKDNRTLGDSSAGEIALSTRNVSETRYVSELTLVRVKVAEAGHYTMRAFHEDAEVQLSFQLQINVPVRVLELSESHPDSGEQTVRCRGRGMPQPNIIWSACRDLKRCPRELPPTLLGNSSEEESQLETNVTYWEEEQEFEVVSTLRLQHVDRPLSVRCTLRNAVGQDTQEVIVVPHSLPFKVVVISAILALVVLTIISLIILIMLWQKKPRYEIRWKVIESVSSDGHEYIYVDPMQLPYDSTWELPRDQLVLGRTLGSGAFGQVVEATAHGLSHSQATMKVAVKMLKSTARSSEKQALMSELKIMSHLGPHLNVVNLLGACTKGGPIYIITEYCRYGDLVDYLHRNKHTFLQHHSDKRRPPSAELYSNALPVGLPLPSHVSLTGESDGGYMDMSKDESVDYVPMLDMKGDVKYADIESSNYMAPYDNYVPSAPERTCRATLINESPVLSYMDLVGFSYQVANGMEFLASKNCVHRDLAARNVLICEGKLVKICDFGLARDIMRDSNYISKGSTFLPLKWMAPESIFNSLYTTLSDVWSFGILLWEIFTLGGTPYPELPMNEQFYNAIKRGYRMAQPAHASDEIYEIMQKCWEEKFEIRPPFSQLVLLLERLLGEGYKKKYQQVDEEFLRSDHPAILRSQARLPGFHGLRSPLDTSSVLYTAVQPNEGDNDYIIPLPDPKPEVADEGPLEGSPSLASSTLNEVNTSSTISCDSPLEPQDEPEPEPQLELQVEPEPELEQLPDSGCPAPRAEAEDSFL
Sequence of Flt1 (h)/VEGFR1 (P17948 27-1338): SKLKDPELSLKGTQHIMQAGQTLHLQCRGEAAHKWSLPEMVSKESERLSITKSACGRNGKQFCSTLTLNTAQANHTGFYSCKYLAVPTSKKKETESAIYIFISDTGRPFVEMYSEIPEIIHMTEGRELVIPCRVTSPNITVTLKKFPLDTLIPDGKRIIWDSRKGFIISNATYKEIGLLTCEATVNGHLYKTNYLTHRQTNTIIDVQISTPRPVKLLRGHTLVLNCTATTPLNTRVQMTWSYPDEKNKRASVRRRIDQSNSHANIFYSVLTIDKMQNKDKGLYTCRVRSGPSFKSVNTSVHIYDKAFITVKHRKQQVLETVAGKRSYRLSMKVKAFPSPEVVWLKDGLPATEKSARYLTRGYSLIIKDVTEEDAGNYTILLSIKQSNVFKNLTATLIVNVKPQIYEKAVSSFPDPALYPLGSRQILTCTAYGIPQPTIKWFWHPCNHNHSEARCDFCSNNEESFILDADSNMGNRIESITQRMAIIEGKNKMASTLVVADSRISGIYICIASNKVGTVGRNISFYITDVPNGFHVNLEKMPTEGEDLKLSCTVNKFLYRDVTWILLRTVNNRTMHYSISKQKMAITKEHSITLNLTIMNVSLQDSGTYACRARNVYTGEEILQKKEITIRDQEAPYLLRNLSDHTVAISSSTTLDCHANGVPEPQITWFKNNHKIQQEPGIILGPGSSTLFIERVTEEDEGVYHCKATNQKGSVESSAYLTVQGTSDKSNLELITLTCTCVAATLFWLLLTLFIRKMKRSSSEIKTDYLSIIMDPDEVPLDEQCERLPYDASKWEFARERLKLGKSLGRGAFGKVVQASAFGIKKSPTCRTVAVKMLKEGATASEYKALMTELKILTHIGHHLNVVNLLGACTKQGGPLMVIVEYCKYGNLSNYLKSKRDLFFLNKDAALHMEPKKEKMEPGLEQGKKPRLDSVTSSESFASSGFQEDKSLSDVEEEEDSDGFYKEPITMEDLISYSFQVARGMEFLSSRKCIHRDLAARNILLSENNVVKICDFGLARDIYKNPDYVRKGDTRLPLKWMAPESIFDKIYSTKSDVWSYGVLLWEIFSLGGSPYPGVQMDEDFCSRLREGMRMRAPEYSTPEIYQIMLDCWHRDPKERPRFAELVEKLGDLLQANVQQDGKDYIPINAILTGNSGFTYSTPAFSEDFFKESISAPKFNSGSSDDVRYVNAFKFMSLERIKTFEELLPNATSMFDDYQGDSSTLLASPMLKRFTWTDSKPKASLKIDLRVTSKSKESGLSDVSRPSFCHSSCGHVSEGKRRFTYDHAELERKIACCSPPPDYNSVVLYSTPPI
Sequence of FGFR4 (h) (P22455 22-802): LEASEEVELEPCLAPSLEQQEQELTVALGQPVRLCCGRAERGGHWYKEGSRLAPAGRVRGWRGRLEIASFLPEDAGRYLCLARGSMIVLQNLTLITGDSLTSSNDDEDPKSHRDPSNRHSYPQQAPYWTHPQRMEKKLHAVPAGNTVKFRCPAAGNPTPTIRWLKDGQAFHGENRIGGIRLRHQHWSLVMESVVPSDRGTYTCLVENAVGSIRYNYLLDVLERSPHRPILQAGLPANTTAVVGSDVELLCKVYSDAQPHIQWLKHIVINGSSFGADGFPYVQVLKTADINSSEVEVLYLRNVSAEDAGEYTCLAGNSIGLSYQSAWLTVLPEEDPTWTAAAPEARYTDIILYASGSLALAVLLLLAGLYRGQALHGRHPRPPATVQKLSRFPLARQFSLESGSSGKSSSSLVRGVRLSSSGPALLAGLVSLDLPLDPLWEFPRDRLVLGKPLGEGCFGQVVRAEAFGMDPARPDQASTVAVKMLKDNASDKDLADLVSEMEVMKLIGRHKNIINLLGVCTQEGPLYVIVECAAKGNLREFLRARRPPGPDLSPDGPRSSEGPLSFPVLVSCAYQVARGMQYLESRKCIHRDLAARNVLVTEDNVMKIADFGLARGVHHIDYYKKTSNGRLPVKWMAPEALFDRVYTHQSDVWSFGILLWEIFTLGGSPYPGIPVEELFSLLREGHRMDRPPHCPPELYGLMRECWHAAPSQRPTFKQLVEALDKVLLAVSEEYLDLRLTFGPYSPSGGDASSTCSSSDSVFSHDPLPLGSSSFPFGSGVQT
Sequence of FGFR2 (h) (P21802 22-821): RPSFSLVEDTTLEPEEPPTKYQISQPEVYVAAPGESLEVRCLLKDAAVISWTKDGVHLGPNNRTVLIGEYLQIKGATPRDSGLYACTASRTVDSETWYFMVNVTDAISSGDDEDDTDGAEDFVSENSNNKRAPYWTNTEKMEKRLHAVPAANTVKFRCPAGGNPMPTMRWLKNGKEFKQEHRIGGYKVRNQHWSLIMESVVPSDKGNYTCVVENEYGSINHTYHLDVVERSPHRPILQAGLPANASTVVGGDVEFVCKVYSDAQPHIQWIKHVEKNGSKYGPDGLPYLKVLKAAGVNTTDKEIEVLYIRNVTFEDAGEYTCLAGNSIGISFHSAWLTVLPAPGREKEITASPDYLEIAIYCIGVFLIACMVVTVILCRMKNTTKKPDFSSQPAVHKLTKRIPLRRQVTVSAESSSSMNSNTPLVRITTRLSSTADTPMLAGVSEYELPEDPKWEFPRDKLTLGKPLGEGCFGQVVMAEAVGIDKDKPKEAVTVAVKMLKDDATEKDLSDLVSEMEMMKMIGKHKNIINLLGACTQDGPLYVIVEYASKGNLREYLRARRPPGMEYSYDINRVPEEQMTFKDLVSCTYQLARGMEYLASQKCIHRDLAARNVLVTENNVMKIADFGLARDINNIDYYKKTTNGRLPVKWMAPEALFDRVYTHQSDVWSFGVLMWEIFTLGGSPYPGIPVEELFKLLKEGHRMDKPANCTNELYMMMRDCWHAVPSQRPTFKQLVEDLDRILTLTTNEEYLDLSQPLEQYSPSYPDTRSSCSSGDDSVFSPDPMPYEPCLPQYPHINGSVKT

IC50 [1]: 7 nM | IC50 [2]: 424 nM | IC50 [3]: 123 nM | kinase inhibition (in words) [4]: relatively weak kinase inhibition | IC50 ([4]; double testing): > 3 µM | solubility compared with Nintedanib (in words) [5]: better solubility than Nintedanib | solubility at 5 min ([5]; organic solvent or mixture, Acetone, read-out: Solubility, Acetone): 83.1 ± 0.89 mg/mL (≈ 140 mM) | solubility at 5 min ([5]; organic solvent or mixture, Acetonitrile, read-out: Solubility, Acetonitrile): 18.3 ± 1.2 mg/mL (≈ 30.8 mM) | solubility at 5 min ([5]; organic solvent or mixture, Ethyl acetate, read-out: Solubility, Ethyl acetate): 101 ± 4.02 mg/mL (≈ 170 mM) | solubility at 5 min ([5]; organic solvent or mixture, Ethyl alcohol, read-out: Solubility, Ethyl alcohol): 77 ± 1.53 mg/mL (≈ 130 mM) | solubility at 5 min ([5]; saline or isotonic, Normal saline, read-out: Solubility, Normal saline): 12.7 ± 0.15 mg/mL (≈ 21.4 mM) | solubility at 5 min ([5]; Water, read-out: Solubility, Water): 1.71 ± 0.14 mg/mL (≈ 2.88 mM)
Structure (SMILES): COc1cc(OC)c(Cl)c(-c2ccc3c(/C=C/c4ccc(N(C)C(=O)CN5CCN(C)CC5)cc4)n[nH]c3c2)c1Cl [YTH‐60, (E)‐N‐(4‐(2‐(6‐(2,6‐dichloro‐3,5‐dimethoxyphenyl)‐1H‐indazol‐3‐yl)vinyl)phenyl)‐N‐methyl‐2‐(4‐methylpiperazin‐1‐yl)acetamide]
cytotoxicity, viability of LO2 cells (in words) [6]: inhibited the viability of LO2 cells less than Nintedanib | viability of A549 cells (in words) [7]: suppressed the viability of A549 cells | TGF‐β1‐induced phosphorylation of Smad2/3 (in words) [8]: significantly reduced this phosphorylation
